From patent US20150299290A1, “IMMUNOGENIC VACCINE” (University of Georgia Research Foundation, Inc., priority 2010, published 2015)
Where a SMILES comes first, the peptide text is derived from it. The star is where a group is joined. Propyl(2R-PamO,3-PamO) = CCCCCCCCCCCCCCCC(=O)OC[C@H](C*)OC(=O)CCCCCCCCCCCCCCC; Palmitoyl = CCCCCCCCCCCCCCCC(=O)*

Assays:
RAW 264.7 γNO(−) cells = assay: TNF-α and IFN-β assays in macrophages (Example 6); assay type: cell-based, mouse; conditions: 5.5 h
Experimental: To examine cytokine production, mouse macrophages (RAW γNO(−) cells) were exposed over a wide range of concentrations to compounds 21-24, E. coli 055:B5 LPS and prototypic E. coli bisphosphoryl lipid A (Zhang, J. Am. Chem. Soc. 2007, 129, 5200-5216). After 5.5 h, the supernatants were harvested and examined for mouse TNF-α and IFN-β using commercial or in-house developed capture ELISAs, respectively (FIG. 6). […] The reduced efficacy of compounds 21 and 23 is probably a beneficial property, because LPS can over-activate the innate immune system leading to symptoms of septic shock.
RAW 264.7 γNO(−) cells were plated on the day of the exposure assay as 2×10^5 cells/well in 96-well plates (Nunc) and incubated with different stimuli for 5.5 h in the presence or absence of polymyxin B. Culture supernatants were collected and stored frozen (−80° C.) until assayed for cytokine production. Concentrations of TNF-α were determined using the TNF-α DuoSet ELISA Development kit from R&D Systems. Concentrations of IFN-β were determined as follows. ELISA MaxiSorp plates were coated with rabbit polyclonal antibody against mouse IFN-β (PBL Biomedical Laboratories). IFN-β in standards and samples was allowed to bind to the immobilized antibody. Rat anti-mouse IFN-β antibody (USBiological) was then added, producing an antibody-antigen-antibody “sandwich”. Next, horseradish peroxidase (HRP) conjugated goat anti-rat IgG (H+L) antibody (Pierce) and a chromogenic substrate for HRP 3,3′,5,5′-tetramethylbenzidine (TMB; Pierce) were added. After the reaction was stopped, the absorbance was measured at 450 nm with wavelength correction set to 540 nm. Concentration-response data were analyzed using nonlinear least-squares curve fitting in Prism (GraphPad Software, Inc.). […] The Hill slope was set at 1 to be able to compare the EC50 values of the different inducers. All cytokine values are presented as the means±SD of triplicate measurements, with each experiment being repeated three times.

RAW γNO(−) cells = assay: TNF-α and IFN-β production by mouse macrophages (Example 3); assay type: cell-based; conditions: best-fit values (Prism)
Experimental: After 5 hours, the supernatants were harvested and examined for mouse TNF-α and IFN-β using commercial or in-house developed capture ELISA assays, respectively.

[1] = test system: GSTPVS(β-O-GlcNAc)SANM (BSA-MI-66 conjugate); design: species or system BALB/c mice; conditions: mouse, in vivo

Molecule: monophosphoryl lipid A [Compound 24]
- IFN-β secretion (RAW 264.7 γNO(−) cells): stimulated the cells to produce TNF-α and INF-β
- TNF-α secretion (RAW 264.7 γNO(−) cells): stimulated the cells to produce TNF-α and INF-β

Molecule: CCCCCCCCCCCCCCCC(=O)N[C@@H](CSC[C@@H](COC(=O)CCCCCCCCCCCCCCC)OC(=O)CCCCCCCCCCCCCCC)C(=O)N[C@@H](CO)C(=O)N[C@@H](CCCCN)C(=O)N[C@@H](CCCCN)C(=O)N[C@@H](CCCCN)C(=O)N[C@@H](CCCCN)C(=O)O [Pam3CysSK4, N-palmitoyl-S—[(R)-2,3-bis(palmitoyloxy)-propyl]-(R)-cysteinyl-(S)-seryl-(S)-lysine-(S)-lysine-(S)-lysine-(S)-lysyne] (Palmitoyl-C(Propyl(2R-PamO,3-PamO))SKKKK-OH)
- Emax for TNF-α production (RAW γNO(−) cells): 932 pg/mL
- IFN-β secretion (RAW 264.7 γNO(−) cells): none of the compounds induced the production of INF-β
- TNF-α secretion (RAW 264.7 γNO(−) cells): induced secretion of TNF-α with similar efficacies and potencies

Molecule: Pam3CysSK4G-C-KLFAVWKITYKDT-G-GSTPVS(β-O-GluNAc)SANM [Compound 52]
- IgG1 titer (anti-GSTPVS(β-O-GlcNAc)SANM) [1]: 61,400
- IgG2a titer (anti-GSTPVS(β-O-GlcNAc)SANM) [1]: 33,200
- IgG2b titer (anti-GSTPVS(β-O-GlcNAc)SANM) [1]: 12,500
- IgG3 titer (anti-GSTPVS(β-O-GlcNAc)SANM) [1]: 69,400
- IgG total titer (anti-GSTPVS(β-O-GlcNAc)SANM) [1]: 76,500
- IgM titer (anti-GSTPVS(β-O-GlcNAc)SANM) [1]: 81,900

Molecule: CCCCCCCCCCCCCCCC(=O)OC[C@H](CSC[C@H](N)C(=O)N[C@@H](CO)C(=O)N[C@@H](CCCCN)C(=O)N[C@@H](CCCCN)C(=O)N[C@@H](CCCCN)C(=O)N[C@@H](CCCCN)C(=O)O)OC(=O)CCCCCCCCCCCCCCC [Pam2CysSK4, S—[(R)-2,3-bis(palmitoyloxy)-propyl]-(R)-cysteinyl-(S)-seryl-(S)-lysine-(S)-lysine-(S)-lysine-(S)-lysyne] (H-C(Propyl(2R-PamO,3-PamO))SKKKK-OH; C-terminus assumed)
- Emax for TNF-α production (RAW γNO(−) cells): 631 pg/mL

Molecule: Pam3CysSK4G-C-KLFAVWKITYKDT-G-GSTPVS(β-S-GluNAc)SANM [Compound 53]
- IgG1 titer (anti-GSTPVS(β-O-GlcNAc)SANM) [1]: 111,800
- IgG2a titer (anti-GSTPVS(β-O-GlcNAc)SANM) [1]: 55,600
- IgG2b titer (anti-GSTPVS(β-O-GlcNAc)SANM) [1]: 21,300
- IgG3 titer (anti-GSTPVS(β-O-GlcNAc)SANM) [1]: 111,700
- IgG total titer (anti-GSTPVS(β-O-GlcNAc)SANM) [1]: 151,600
- IgM titer (anti-GSTPVS(β-O-GlcNAc)SANM) [1]: 21,900
